Results from the supplement of paper PMC10307832.

Compound: C=CCNC1=C2C[C@@H](C)C[C@H](OC)[C@H](O)[C@@H](C)/C=C(\C)[C@H](OC(N)=O)[C@@H](OC)/C=C\C=C(/C)C(=O)NC(=CC1=O)C2=O [17-AAG]
Assay: relative viability (nuclei count vs DMSO), 5 days (fraction); higher = more cells survive
Procedure, shortened: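 Five library-drug doses, separated by factors of √10, were pinned into 1536-well plates holding lung cancer cell lines after an overnight stay at 37 °C. Cells were fixed, permeabilised and Hoechst-stained in one step after 5 days without medium change, then imaged at 4×. Viability compares treated-well with vehicle-well nuclei, counted in MetaXpress, as a median across plates. Passing plates had control CV below 25% and at least one doubling.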

Cell Line	relative viability (0.00128 µM)	relative viability (0.004048 µM)	relative viability (0.0128 µM)	relative viability (0.04048 µM)	relative viability (0.128 µM)
COR-L 105	0.917	0.966	1	0.488	0.547
LK-2	1.17	1	0.816	0.519	0.159
NCI-H838	1.03	0.963	0.575	0.187	0.177
SK-LU-1	1.06	0.796	0.315	0.229	0.181
NCI-H2023	0.919	0.724	0.122	0.0716	0.0728
NCI-H441	0.857	0.693	0.223	0.192	0.105
NCI-H1666	1.01	0.913	0.723	0.47	0.364
NCI-H1648	0.888	1.08	0.839	0.673	0.59
NCI-H2087	0.984	0.767	0.16	0.177	0.134
LU99A	0.909	0.867	0.627	0.369	0.169
HCC-366	1.02	1.04	0.49	0.0512	0.0477
EKVX	1	1.02	1.05	0.261	0.229
NCI-H522	0.805	1.09	0.782	0.602	0.433
NCI-H1755	1.01	0.943	0.897	0.433	0.238
NCI-H650	0.894	1.01	0.798	0.511	0.264
LC-2-ad	0.943	0.974	0.793	0.27	0.19
NCI-H1793	0.967	0.842	0.282	0.186	0.135
HCC-827	1.05	0.997	1.02		0.77
HCC-78	0.935	1.02	1.01	0.727	0.425
NCI-H2085	0.994	0.95	0.99	0.919	0.76
PC-3 [JPC-3]	1.01	1.06	1.01		0.873
NCI-H2342	0.951	1.01	1.01	0.78	0.428
A-427	0.967	1.01	0.95	0.62	0.265
H3255	0.995	0.973	0.948	0.313	0.243
HCC-44	1	0.976	0.992	0.278	0.19
NCI-H1734	0.98	1.02	0.839	0.284	0.15

Cell Line	relative viability (0.00128 µM)	relative viability (0.004048 µM)	relative viability (0.0128 µM)	relative viability (0.04048 µM)	relative viability (0.128 µM)
NCI-H2228	1.08	0.72	0.125	0.112	0.152
ABC-1	0.916	0.978	1.09	0.892	0.708
COR-L23	0.987	1.02	1.01	0.668	0.147
NCI-H727	0.989	0.922	0.858	0.5	0.344
NCI-H1993	0.937	0.909	0.611	0.476	0.432
NCI-H1437	1.03	0.931	0.637	0.249	0.178
NCI-H2347	0.958	0.998	1.13	0.557	0.385
201T	0.953	0.976	0.936	0.425	0.316
NCI-H358	0.889	0.532	0.119	0.115	0.103
ChaGo-K-1	0.961	0.966	0.877	0.463	0.307
NCI-H1650	0.89	0.477	0.197	0.2	0.144
LOU-NH91	0.928	0.819	0.571	0.435	0.354
HOP-62	1.03	0.881	0.904	0.436	0.126
NCI-H1915	0.917	0.966	0.952	0.152	0.0877
NCI-H322M	0.95	0.967	0.483	0.346	0.325
NCI-H1651	0.955	0.964	0.945	0.681	0.335
EBC-1	1.02	0.882	0.166	0.15	0.132
PC-14	0.967	0.742	0.398	0.108	0.0843
NCI-H647	0.985	0.779	0.135	0.108	0.091
SW 1573	0.973	0.95	0.542	0.151	0.104
NCI-H460	0.96	0.965	0.198	0.0341	0.0297
NCI-H661	0.937	0.998	0.953	0.549	0.295
SK-MES-1	0.966	0.86	0.45	0.181	0.159
NCI-H1792	0.888	0.772	0.347	0.165	0.181
NCI-H1355	0.983	0.974	0.899	0.193	0.159
UMC-11	0.943	1.01	0.839	0.478	0.195

Cell Line	relative viability (0.00128 µM)	relative viability (0.004048 µM)	relative viability (0.0128 µM)	relative viability (0.04048 µM)	relative viability (0.128 µM)
A549	0.948	0.86	0.115	0.0515	0.0401
NCI-H2405	1.02	0.957	0.663	0.251	0.236
LCLC-97TM1	0.905	0.974	0.768	0.677	0.123
EMC-BAC-2	1.13	0.986	0.889	0.396	0.362
NCI-H1975	0.909	0.889	0.372	0.16	0.167
BEN	1.01	1.1	1.11	0.829	0.36
SW 900	0.831	0.727	0.312	0.155	0.141
NCI-H1703	0.911	0.734	0.173	0.191	0.145
NCI-H23	0.949	0.851	0.289	0.177	0.147
NCI-H596	0.931	0.917	0.955	0.816	0.404
CAL-12T	0.947	1.02	0.948	0.625	0.24
EPLC-272H	1.02	0.968	0.663	0.159	0.104
LCLC-103H	1.02	1	0.957	1.04	1.07
NCI-H3122	0.99	0.867	0.29	0.155	0.134
HCC-15	0.94	0.923	0.557	0.14	0.122
RERF-LC-KJ	1.03	1.05	0.669	0.284	0.26
NCI-H1944	0.863	0.915	0.896	0.251	0.178
HARA	0.952	1.12	1	0.474	0.183
NCI-H1563	1.03	0.893	0.599	0.629	0.519
NCI-H2126	1.01	0.995	0.957	0.435	0.26
LXF-289	1.01	1	0.872	0.167	0.121
NCI-H520	1.01	0.974	0.566	0.193	0.185
NCI-H1395	0.79	0.818	0.648	0.388	0.342
NCI-H2170	1.01	0.973	0.605	0.178	0.168
NCI-H2009	0.961	0.995	0.93	0.894	0.274
